EP1115693B9, “SUBSTITUTED POLYCYCLIC ARYL AND HETEROARYL $i([sequence])-HETEROALKYLAMINES USEFUL FOR INHIBITING CHOLESTERYL ESTER [sequence] PROTEIN ACTIVITY” (Monsanto Company, priority 1998, dated 2000)

Biological target: T1, CETP (Homo sapiens, UniProt P11597)
T1 sequence (P11597 18-493): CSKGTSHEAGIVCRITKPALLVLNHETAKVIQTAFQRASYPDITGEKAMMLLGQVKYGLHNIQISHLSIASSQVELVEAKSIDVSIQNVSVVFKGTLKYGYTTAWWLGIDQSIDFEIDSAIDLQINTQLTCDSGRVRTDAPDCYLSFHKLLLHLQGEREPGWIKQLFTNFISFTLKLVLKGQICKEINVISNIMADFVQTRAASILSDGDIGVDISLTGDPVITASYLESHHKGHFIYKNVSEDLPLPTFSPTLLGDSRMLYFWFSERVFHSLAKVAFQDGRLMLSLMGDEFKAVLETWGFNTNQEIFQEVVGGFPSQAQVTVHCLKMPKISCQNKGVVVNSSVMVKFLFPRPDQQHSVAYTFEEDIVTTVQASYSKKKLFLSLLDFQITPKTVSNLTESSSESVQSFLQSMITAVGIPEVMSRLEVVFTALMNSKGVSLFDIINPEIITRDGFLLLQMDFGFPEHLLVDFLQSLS
Test: Assay of CETP inhibition in human plasma: transfer of [3H]CE from [3H]CE-HDL to VLDL and LDL
Assay type: biochemical
Design: Blood was obtained from healthy volunteers; from tissue; host or cells: pooled human EDTA plasma from healthy volunteers
Conditions: inhibition of transfer of [3H]CE from [3H]CE-HDL to VLDL and LDL
Protocol: ASSAY OF CETP INHIBITION IN HUMAN PLASMA
Blood was obtained from healthy volunteers, recruited from the personnel of Monsanto Company, Saint Louis, MO. Blood was collected in tubes containing EDTA (EDTA plasma pool). The EDTA human plasma pool, previously stored at -20 °C, was thawed at room temperature and centrifuged for 5 minutes to remove any particulate matter. […] Equal volumes (396 µL) of the plasma containing the [^3H]CE-HDL were added by pipette into micro tubes (Titertube®, Bio-Rad laboratories, Hercules, CA). Inhibitor compounds, dissolved as 20-50 mM stock solutions in DMSO, were serially diluted in DMSO (or an alternative solvent in some cases, such as dimethylformamide or ethanol). Four µL of each of the serial dilutions of inhibitor compounds or DMSO alone were then added to each of the tubes containing plasma (396 µL). After mixing, triplicate aliquots (100 µL) from each plasma tube were then transferred to wells of 96-well roundbottomed polystyrene microtiter plates (Corning, Corning, NY). Plates were sealed with plastic film and incubated at 37 °C for 4 hours. "Test" samples contained plasma with dilutions of inhibitor compounds. "Control" samples contained plasma with DMSO diluted to the same concentration as the test samples, but without inhibitor. "Blank" samples were prepared as "control" samples, but were left in the micro tubes at 4 °C for the 4 hour incubation and were then added to the microtiter wells at the end of the incubation period. VLDL and LDL were precipitated by the addition of 10 µL of precipitating reagent (1% (w/v) dextran sulfate (Dextralip50)/0.5 M magnesium chloride, pH 7.4) to all wells. The wells were mixed on a plate mixer and then incubated at ambient temperature for 10 min. The plates were then centrifuged at 1000 x g for 30 min at 10 °C. The supernatants (50 µL) from each well were then transferred to Picoplate™ 96 plate wells (Packard, Meriden. CT) containing Microscint™-40 (Packard, Meriden, CT). The plates were heat-sealed (TopSeal™-P, Packard, Meriden, CT) according to the manufacturer's directions and mixed for 30 min. Radioactivity was measured on a microplate scintillation counter (TopCount. Packard, Meriden, CT). The maximum percentage transfer in the control wells (% transfer) was determined using the following equation: % Transfer = ([dpmblank -dpmcontrol ] × 100)/(dpmblank) [formula]
The percentage of transfer relative to the control (% control) was determined in the wells containing inhibitor compounds was determined as follows: % Control = ([dpmblank -dpmtest ] × 100)/(dpmblank -dpmcontrol) [formula]
IC50 values were then calculated from plots of % control versus concentration of inhibitor compound. […]

| Structure (SMILES) | IC50 |
| --- | --- |
| OC(CN(Cc1cccc(OC(F)(F)C(F)F)c1)c1cccc(OCc2ccccc2)c1)C(F)(F)F (stereo not shown) [compound 373] | 12 µM |
| OC(CN(Cc1ccc(OC(F)(F)F)cc1)c1ccccc1)C(F)(F)F (stereo not shown) [compound 59] | 100 µM |
| CCCc1ccc(Oc2cccc(N(Cc3cccc(OC(F)(F)C(F)F)c3)CC(O)C(F)(F)F)c2)cc1 (stereo not shown) [compound 266] | 21 µM |
| OC(CN(Cc1ccc(Cl)s1)c1cccc(OC(F)(F)F)c1)C(F)(F)F (stereo not shown) [Example 321, 3-[[(5-chloro-2-thienyl)methyl][(3-trifluoromethoxy)phenyl]amino]-1,1,1-trifluoro-2-propanol] | > 100 µM |
| OC(CN(Cc1cccc(OC(F)(F)F)c1)c1ccccc1)C(F)(F)F (stereo not shown) [compound 73] | 100 µM |
| OC(CN(Cc1cccc(OC(F)(F)C(F)F)c1)c1cccc(Oc2ccc(Cl)c(Cl)c2)c1)C(F)(F)F (stereo not shown) [compound 256] | 7.8 µM |

The next lines start with the values.

| IC50 | Structure (SMILES) |
| --- | --- |
| 11 µM | OC(CN(Cc1cccc(OC(F)(F)C(F)F)c1)c1cccc(Oc2ccc(F)c(F)c2)c1)C(F)(F)F (stereo not shown) [compound 638] |
| > 100 µM | CCCCOc1cccc(CN(CC(O)C(F)(F)F)c2cccc(Oc3ccc(F)cc3)c2)c1 (stereo not shown) [compound 649] |
| 24 µM | N#Cc1ccc(Oc2cccc(N(Cc3cccc(OC(F)(F)C(F)F)c3)CC(O)C(F)(F)F)c2)cc1 (stereo not shown) [compound 657] |

Biological target: T1, CETP
Test: Assay of CETP inhibition using purified components (reconstituted buffer assay): transfer of [3H]CE from HDL to LDL
Assay type: biochemical
Design: made in house; host or cells: CHO cells (serum-free conditioned medium)
Conditions: 2 hours at 37°C
Protocol: ASSAY OF CETP INHIBITION USING PURIFIED COMPONENTS (RECONSTITUTED BUFFER ASSAY)
The ability of compounds to inhibit CETP activity was assessed using an in vitro assay that measured the rate of transfer of radiolabeled cholesteryl ester ([^3H]CE) from HDL donor particles to LDL acceptor particles. Details of the assay are provided by Glenn, K. C. et al. (Glenn and Melton, "Quantification of Cholesteryl Ester Transfer Protein (CETP): A) CETP Activity and B) Immunochemical Assay of CETP Protein," Meth. Enzymol., 263, 339-351 (1996)). Human recombinant CETP can be obtained from the serum-free conditioned medium of CHO cells transfected with a cDNA for CETP and purified as described by Wang, S. et al. (J. Biol. Chem. 267, 17487-17490 (1992)). To measure CETP activity, [^3H]CE-labeled-HDL, LDL, CETP and assay buffer (50 mM tris(hydroxymethyl)aminomethane, pH 7.4; 150 mM sodium chloride; 2 mM ethylenediamine-tetraacetic acid (EDTA); 1% bovine serum albumin) were incubated in a final volume of 200 µL, for 2 hours at 37°C in 96 well plates. […] The inhibitors were then diluted 1:1 with CETP in assay buffer, and then 25 µL of that solution was mixed with 175 µL of lipoprotein pool for assay. Following incubation, LDL was differentially precipitated by the addition of 50 µL of 1% (w/v) dextran sulfate/0.5 M magnesium chloride, mixed by vortex, and incubated at room temperature for 10 minutes. A potion of the solution (200 µL) was transferred to a filter plate (Millipore). After filtration, the radioactivity present in the precipitated LDL was measured by liquid scintillation counting.
This value was defined as the IC50.

| Structure (SMILES) | IC50 |
| --- | --- |
| OC(CN(Cc1cccc(OC(F)(F)C(F)F)c1)c1cccc(OCc2ccccc2)c1)C(F)(F)F (stereo not shown) [compound 373] | 0.22 µM |
| COc1ccccc1CC(=O)N(CC(O)C(F)(F)F)c1cccc(OC(F)(F)F)c1 (stereo not shown) [compound 339] | > 100 µM |
| OC(CN(Cc1cccc(OC(F)(F)C(F)F)c1)c1cccc(Oc2cccc(C(F)(F)F)c2F)c1)C(F)(F)F (stereo not shown) [compound 227] | 0.13 µM |
| COc1cccc(N(Cc2cccc(C)c2)CC(O)C(F)(F)F)c1 (stereo not shown) [Example 3] | 60 µM |
| COC(=O)c1cccc(CN(CC(O)C(F)(F)F)c2cccc(OC(F)(F)F)c2)c1 (stereo not shown) [compound 325] | > 100 µM |
| O=C(Cc1ccccc1Oc1ccccc1)N(CC(O)C(F)(F)F)c1cccc(OC(F)(F)F)c1 (stereo not shown) [compound 361] | > 100 µM |
| OCCCOc1cccc(N(Cc2cccc(OC(F)(F)C(F)F)c2)CC(O)C(F)(F)F)c1 (stereo not shown) [compound 504] | 14 µM |
| Fc1ccc(Oc2cccc(NCc3cccc(OC(F)(F)C(F)F)c3)c2)cc1 [634C] | > 100 µM |
| OC(CN(Cc1cccc(OC(F)(F)C(F)F)c1)c1cccc(OCc2cccc(SC(F)(F)F)c2)c1)C(F)(F)F (stereo not shown) [compound 410] | 0.19 µM |
| Cc1ccc(CN(CC(O)C(F)(F)F)c2cccc(Cl)c2)cc1 (stereo not shown) [compound 34] | 50 µM |
| OC(CN(Cc1ccc(-c2ccccc2)cc1)c1cccc(OC(F)(F)F)c1)C(F)(F)F (stereo not shown) [compound 333] | 100 µM |
| OC(CN(Cc1cccc(F)c1)c1cccc(F)c1)C(F)(F)F (stereo not shown) [compound 18] | 60 µM |
| OCc1cccc(CN(CC(O)C(F)(F)F)c2cccc(Oc3ccccc3)c2)c1 (stereo not shown) [Example 618, 3-[[(3-phenoxyphenyl)(3,3,3-trifluoro-2-hydroxypropyl)amino]methyl]benzenemethanol] | 100 µM |
| Cc1ccc(CN(CC(O)C(F)(F)F)c2cccc(C(F)(F)F)c2)cc1 (stereo not shown) [compound 45] | 100 µM |
| OC(CN(Cc1ccccc1)c1cccc(Oc2ccccc2)c1)C(F)(F)F (stereo not shown) [compound 217] | 32 µM |
| OC(CN(Cc1cccc(OC(F)(F)C(F)F)c1)c1cccc(OCCN2CCCC2)c1)C(F)(F)F (stereo not shown) [compound 498] | > 50 µM |
| CCCCOC(=O)c1ccc(N(Cc2cccc(OC(F)(F)F)c2)CC(O)C(F)(F)F)cc1 (stereo not shown) [compound 164] | > 100 µM |
| Cc1cccc(CN(CC(O)C(F)(F)F)c2cccc(F)c2)c1 (stereo not shown) [compound 49] | > 100 µM |
| OC(CN(Cc1ccccc1)c1ccccc1)C(F)(F)F (stereo not shown) [compound 2] | 100 µM |
| OC(CN(Cc1cccc(OC(F)(F)C(F)F)c1)c1cccc(Oc2nccs2)c1)C(F)(F)F (stereo not shown) [compound 448] | 4.3 µM |
| COc1ccc(OC)c(C(=O)CN(CC(O)C(F)(F)F)c2cccc(OC(F)(F)F)c2)c1 (stereo not shown) [compound 340] | 100 µM |
| O=C(c1cccc(C(F)(F)F)c1)N(CC(O)C(F)(F)F)c1cccc(F)c1 (stereo not shown) [Example 663, N-(3-fluorophenyl)-N-(3,3,3-trifluoro-2-hydroxypropyl)-3-(trifluoromethyl)benzamide] | 100 µM |
| Cc1ccc(N(Cc2cccc(F)c2)CC(O)C(F)(F)F)cc1 (stereo not shown) [compound 32] | > 100 µM |
| OC(CN(Cc1cccc(OC(F)(F)C(F)F)c1)c1cccc(Oc2ccc(S)cc2)c1)C(F)(F)F (stereo not shown) [compound 263] | > 50 µM |
| OC(CN(Cc1cccc(Oc2cc(Cl)cc(Cl)c2)c1)c1cccc(OC(F)(F)F)c1)C(F)(F)F (stereo not shown) [compound 96] | 50 µM |
| O=C(C=Cc1ccccc1)N(CC(O)C(F)(F)F)c1cccc(OC(F)(F)F)c1 (stereo not shown) [compound 351] | 50 µM |

Second part, the compound after the results:

| IC50 | Structure (SMILES) |
| --- | --- |
| 0.26 µM | OC(CN(Cc1cccc(OC(F)(F)C(F)F)c1)c1cccc(Oc2ccc(F)c(F)c2)c1)C(F)(F)F (stereo not shown) [compound 638] |
| 4.9 µM | CCCCOc1cccc(CN(CC(O)C(F)(F)F)c2cccc(Oc3ccc(F)cc3)c2)c1 (stereo not shown) [compound 649] |
| 1 µM | N#Cc1ccc(Oc2cccc(N(Cc3cccc(OC(F)(F)C(F)F)c3)CC(O)C(F)(F)F)c2)cc1 (stereo not shown) [compound 657] |
| 0.97 µM | CC(C)(C)COc1cccc(N(Cc2cccc(OC(F)(F)C(F)F)c2)CC(O)C(F)(F)F)c1 (stereo not shown) [compound 506] |
| 0.42 µM | OC(CN(Cc1cccc(OC(F)(F)C(F)F)c1)c1cccc(OC2CCCC2)c1)C(F)(F)F (stereo not shown) [compound 509] |
| 2.1 µM | OC(CN(Cc1cccc(OC(F)(F)F)c1)c1cc(Oc2ccc(F)cc2)cc(C(F)(F)F)c1)C(F)(F)F (stereo not shown) [compound 643] |
| > 100 µM | Cc1ccccc1CN(CC(O)C(F)(F)F)c1cccc(F)c1 (stereo not shown) [compound 671] |
| 1.8 µM | OC(CN(Cc1cccc(OC(F)(F)C(F)F)c1)c1cccc(Cc2ccccc2)c1)C(F)(F)F (stereo not shown) [compound 515] |
| 0.99 µM | OC(CN(Cc1cccc(OCC2CC2)c1)c1cccc(Oc2ccc(F)cc2)c1)C(F)(F)F (stereo not shown) [compound 651] |
| 35 µM | OC(COC(F)(F)C(F)F)CN(Cc1cccc(OC(F)(F)C(F)F)c1)c1cccc(Oc2ccc(C(F)(F)F)cc2)c1 (stereo not shown) [compound 702] |
| 1.5 µM | CC(C)COc1cccc(CN(CC(O)C(F)(F)F)c2cccc(Oc3ccc(F)cc3)c2)c1 (stereo not shown) [compound 652] |
| 11 µM | OC(CN(Cc1cccc(C(F)(F)F)c1)c1cc(Oc2ccc(F)cc2)cc(C(F)(F)F)c1)C(F)(F)F (stereo not shown) [compound 641] |
| > 100 µM | OC(CN(Cc1cccc(Oc2cccc(C(F)(F)F)c2)c1)c1cccc(F)c1)C(F)(F)F (stereo not shown) [compound 674] |
| 100 µM | OC(CN(Cc1ccccc1F)Cc1ccccc1C(F)(F)F)C(F)(F)F (stereo not shown) [compound 696] |
